Starred links: 1 amine or outer side, 2 acyl side, 3 side chain; linkers in the order of their positions; H or OH if unused. Positions of bridges follow the written chain, without caps; N, C: chain ends. Non-standard residues stand in square brackets, D forms with d. Residues, ends and D or L forms follow the SMILES beside them. Groups on a side chain read outwards from the residue. *: point of attachment. Trp(1-Me) = Cn1cc(C[C@H](N)C(=O)O)c2ccccc21; Abu(4-yl) = O=C([C@H](CC[*:3])N[*:1])[*:2]; C18 diacid = O=C(O)CCCCCCCCCCCCCCCCC(=O)*; γGlu = O=C(O)[C@H](CCC(=O)[*:2])N[*:1]; AEEA = NCCOCCOCC(=O)O; Sar = CNCC(=O)O
Columns and labels:
[1] = system: classical complement pathway; assay: In vitro haemolysis assay (inhibition of classical complement pathway); type: cell-based, human; conditions: Table 3; human serum, sensitized sheep red blood cells; read-out: IC50[nM], in vitro analysis of inhibition of hemolysis
How it was run: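 Serially diluted compound (9 points) was preincubated 15 min at room temperature with diluted human serum, titrated per batch to give 70-90% maximal haemolysis, in Tris/casein buffer pH 7.4 with Mg2+/Ca2+. Antibody-sensitized sheep erythrocytes were then added for 30 min at 37° C, and the reaction was stopped with EDTA. Haemolysis was read at A405, with IC50 from 4PL fit.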

Human C3 = biological target: T1, Human C3 (Homo sapiens, UniProt P01024); assay: Affinity measurement by surface plasmon resonance (SPR) with immobilized C3; type: binding; conditions: Table 7; immobilized C3, 25° C., pH 7.4
T1 construct: purchased Complement tech A1 13c (so in the source)
Experimental: Surface plasmon resonance (SPR) was used to characterize peptides with respect to their binding affinity (Kd) for C3. Human C3 (Complement tech cat #A1 13c) was immobilised on individual flow cells of CM5 sensor chips (GE Healthcare) using standard amine coupling to a density of approximately 3000 resonance units (RU) in a buffer consisting of 10 mM phosphate pH 7.4, 150 mM NaCl, 0.05% Tween20. For interaction experiments a multi-cycle experiment approach was used and performed using either a Biacore™ T200 or Biacore™ X100 instrument (GE Healthcare) at 25° C. Peptides were injected in increasing concentration series (5-8 different concentrations) for 60-120 s at a flow rate of 30 μL/min in a buffer consisting of 10 mM Tris buffer at pH 7.4, with 150 mM NaCl and 0.05% Tween20. This was followed by a dissociation period for up to 10 min. […] Sensorgrams were double-referenced (reference surface, blanks) prior to analysis of the kinetic profiles by globally fitting data to a 1:1 Langmuir binding model to obtain association and dissociation rates for calculation of the equilibrium dissociation constant Kd. Each peptide was tested at in at least 2 independent experiments.

[2] = Solubility test at 10 mg/mL (visual inspection and light scattering); type: physicochemical
in vivo = assay: in vivo; set-up: species or system Cynomolgus monkeys (Macaca fascicularis); conditions: male, cynomolgus monkey, sc, 1840 nmol/kg, t½
Experimental: Healthy male Cynomolgus monkeys (Macaca fascicularis) received single subcutaneous administrations of each test substance. Compounds were formulated in 20 mM phosphate adjusted with NaOH to pH 7.5 and mannitol for isotonicity and dosed at 1840 nmol/kg. Blood was collected from a femoral vein from each animal at the following times: Pre-dose, 1, 2, 4, 8, 24, 48, 72, 96 and 120 h (10 sampling times). Blood was collected into serum separation tubes and allowed to clot at room temperature. The tubes were centrifuged and resulting serum was aliquoted and snap-frozen over dry-ice and stored at nominally −80° C. until analysis. All NHP studies were performed in accordance with animal welfare laws and regulations, including approval of the study by a local ethical review process.
In order to assess pharmacokinetic half-life (t %/), serum samples isolated from non-human primates at specific time points after dosing were analysed for total drug compound after sample preparation by solid phase extraction (SPE) and liquid chromatography mass spectrometry (LC-MS/MS) using analogue internal standard. Single measurement of serum concentrations were used for calculation of the pharmacokinetic parameters using the non-compartmental approach in Phoenix WinNonlin 6.3. Plasma terminal elimination half-life (ty) was determined as In(2)/λz where λz is the magnitude of the slope of the log linear regression of the log concentration versus time profile during the terminal phase.

Compound | IC50 [1] [nM] | half-life (in vivo) [h] | other results
CC[C@H](C)[C@@H]1NC(=O)[C@@H](NC(=O)[C@H](Cc2ccccc2)NC(=O)[C@H](C)NC(=O)[C@H](CO)NC(=O)CNC(=O)[C@H](CCC(=O)O)NC(C)=O)CSSC[C@@H](C(=O)N(C)CC(=O)N[C@@H](CCC(=O)O)C(N)=O)NC(=O)[C@H](CCCNC(=N)N)NC(=O)[C@H](Cc2c[nH]cn2)NC(=O)[C@H](CCC(=O)O)NC(=O)CNC(=O)[C@H](Cc2c[nH]c3ccccc23)NC(=O)[C@H](CC(=O)O)NC(=O)[C@H](CCC(N)=O)NC(=O)[C@H](Cc2cn(C)c3ccccc23)NC1=O [Compound 53] (Ac-EGSAFCI[Trp(1-Me)]QDWGEHRC[Sar]E-NH2; disulfide 6-16) | < 100 |  | Kd (Human C3): 1.4 nM; Solubility, Condition 1 Acetate pH 4 ([2]; 10 mg/mL compound in 100 mM acetate pH 4): − (denotes lack of solubility at the given condition, as UV absorbance at 340 nm exceeds 0.1 AU and/or it is visibly turbid or contains particles.); Solubility, Condition 2 Acetate pH 5 ([2]; 10 mg/mL compound in 100 mM acetate pH 5): − (denotes lack of solubility at the given condition, as UV absorbance at 340 nm exceeds 0.1 AU and/or it is visibly turbid or contains particles.); Solubility, Condition 3 Phosphate pH 6 ([2]; 10 mg/mL compound in 100 mM phosphate pH 6): + (denotes solubility at the given condition, as determined by UV absorbance being less than 0.1 AU at 340 nm and the sample being clear when manually inspected.); Solubility, Condition 4 Phosphate pH 7 ([2]; 10 mg/mL compound in 100 mM phosphate pH 7): + (denotes solubility at the given condition, as determined by UV absorbance being less than 0.1 AU at 340 nm and the sample being clear when manually inspected.); Solubility, Condition 5 Phosphate pH 7.5 ([2]; 10 mg/mL compound in 100 mM phosphate pH 7.5): + (denotes solubility at the given condition, as determined by UV absorbance being less than 0.1 AU at 340 nm and the sample being clear when manually inspected.)
CC[C@H](C)[C@@H]1NC(=O)[C@@H](NC(=O)[C@H](Cc2ccc(O)cc2)NC(=O)[C@H](CCC(=O)O)NC(=O)[C@H](CO)NC(C)=O)CSSC[C@@H](C(=O)N(C)CC(=O)N[C@@H](CCC(=O)O)C(=O)NCC(=O)N[C@@H](C)C(=O)N[C@@H](CCCCNC(=O)COCCOCCNC(=O)CC[C@H](NC(=O)COCCOCCNC(=O)CNC(=O)CC[C@H](NC(=O)CCCCCCCCCCCCCCCCC(=O)O)C(=O)O)C(=O)O)C(N)=O)NC(=O)[C@H](CCCNC(=N)N)NC(=O)[C@H](Cc2c[nH]cn2)NC(=O)[C@H](CCC(=O)O)NC(=O)CNC(=O)[C@H](Cc2c[nH]c3ccccc23)NC(=O)[C@H](CCC(=O)O)NC(=O)[C@H](CCC(N)=O)NC(=O)[C@H](Cc2cn(C)c3ccccc23)NC1=O [Compound 122] (Ac-SEYCI[Trp(1-Me)]QEWGEHRC[Sar]EGAK([AEEA-γGlu-AEEA-Gly-γGlu-C18 diacid])-NH2; disulfide 4-14) | < 500 | 127 | 
CC[C@H](C)[C@@H]1NC(=O)[C@@H](NC(=O)[C@H](Cc2ccccc2)NC(=O)[C@H](CCC(=O)O)NC(=O)[C@H](CO)NC(C)=O)CSSC[C@@H](C(=O)N(C)CC(=O)N[C@@H](CCC(=O)O)C(=O)NCC(=O)N[C@@H](CCC(=O)O)C(=O)NCCOCCOCC(=O)NCCOCCOCC(=O)N[C@@H](CCCCNC(=O)CC[C@H](NC(=O)CNC(=O)CC[C@H](NC(=O)CCCCCCCCCCCCCCCCC(=O)O)C(=O)O)C(=O)O)C(N)=O)NC(=O)[C@H](CCCNC(=N)N)NC(=O)[C@H](Cc2c[nH]cn2)NC(=O)[C@H](CCC(=O)O)NC(=O)CNC(=O)[C@H](Cc2c[nH]c3ccccc23)NC(=O)[C@H](CCC(=O)O)NC(=O)[C@H](CCC(N)=O)NC(=O)[C@H](Cc2cn(C)c3ccccc23)NC1=O [Compound 124] (Ac-SEFCI[Trp(1-Me)]QEWGEHRC[Sar]EGE[AEEA][AEEA]K([γGlu-Gly-γGlu-C18 diacid])-NH2; disulfide 4-14) | < 100 | 112 | 
CC[C@H](C)[C@@H]1NC(=O)[C@@H](NC(=O)[C@H](Cc2ccccc2)NC(=O)[C@H](CCC(=O)O)NC(=O)[C@H](CO)NC(C)=O)CSSC[C@@H](C(=O)N(C)CC(=O)N[C@@H](CCC(=O)O)C(=O)NCC(=O)N[C@@H](CCC(=O)O)C(=O)N[C@@H](CO)C(=O)N[C@@H](CCC(=O)O)C(=O)N[C@@H](CO)C(=O)N[C@@H](CCCCNC(=O)CC[C@H](NC(=O)CNC(=O)CC[C@H](NC(=O)CCCCCCCCCCCCCCCCC(=O)O)C(=O)O)C(=O)O)C(N)=O)NC(=O)[C@H](CCCNC(=N)N)NC(=O)[C@H](Cc2c[nH]cn2)NC(=O)[C@H](CCC(=O)O)NC(=O)CNC(=O)[C@H](Cc2c[nH]c3ccccc23)NC(=O)[C@H](CC(=O)O)NC(=O)[C@H](CCC(N)=O)NC(=O)[C@H](Cc2cn(C)c3ccccc23)NC1=O [Compound 139] (Ac-SEFCI[Trp(1-Me)]QDWGEHRC[Sar]EGESESK([γGlu-Gly-γGlu-C18 diacid])-NH2; disulfide 4-14) | < 100 | 82 | 
CC[C@H](C)[C@@H]1NC(=O)[C@@H](NC(=O)[C@H](Cc2ccccc2)NC(=O)[C@H](CCC(=O)O)NC(=O)[C@H](CO)NC(C)=O)CSSC[C@@H](C(=O)N(C)CC(=O)N[C@@H](CCC(=O)O)C(=O)NCC(=O)N[C@@H](CCC(=O)O)C(=O)NCCOCCOCC(=O)N[C@@H](CCC(=O)O)C(=O)N[C@@H](CO)C(=O)N[C@@H](CCCCNC(=O)CC[C@H](NC(=O)CNC(=O)CC[C@H](NC(=O)CCCCCCCCCCCCCCCCC(=O)O)C(=O)O)C(=O)O)C(N)=O)NC(=O)[C@H](CCCNC(=N)N)NC(=O)[C@H](Cc2c[nH]cn2)NC(=O)[C@H](CCC(=O)O)NC(=O)CNC(=O)[C@H](Cc2c[nH]c3ccccc23)NC(=O)[C@H](CC(=O)O)NC(=O)[C@H](CCC(N)=O)NC(=O)[C@H](Cc2cn(C)c3ccccc23)NC1=O [Compound 140] (Ac-SEFCI[Trp(1-Me)]QDWGEHRC[Sar]EGE[AEEA]ESK([γGlu-Gly-γGlu-C18 diacid])-NH2; disulfide 4-14) | < 100 | 100 | 
CC[C@H](C)[C@@H]1NC(=O)[C@@H](NC(=O)[C@H](Cc2ccccc2)NC(=O)[C@H](CCC(=O)O)NC(=O)[C@H](CO)NC(C)=O)CSSC[C@@H](C(=O)N(C)CC(=O)N[C@@H](CCC(=O)O)C(=O)NCC(=O)N[C@@H](CCC(=O)O)C(=O)N[C@@H](CO)C(=O)N[C@@H](CCC(=O)O)C(=O)N[C@@H](CO)C(=O)N[C@@H](CCCCNC(=O)CC[C@H](NC(=O)CCCCCCCCCCCCCCCCC(=O)O)C(=O)O)C(N)=O)NC(=O)[C@H](CCCNC(=N)N)NC(=O)[C@H](Cc2c[nH]cn2)NC(=O)[C@H](CCC(=O)O)NC(=O)CNC(=O)[C@H](Cc2c[nH]c3ccccc23)NC(=O)[C@H](CC(=O)O)NC(=O)[C@H](CCC(N)=O)NC(=O)[C@H](Cc2cn(C)c3ccccc23)NC1=O [Compound 141] (Ac-SEFCI[Trp(1-Me)]QDWGEHRC[Sar]EGESESK([γGlu-C18 diacid])-NH2; disulfide 4-14) | < 100 | 145 | 
CC[C@H](C)[C@@H]1NC(=O)[C@@H](NC(=O)[C@H](Cc2ccccc2)NC(=O)[C@H](CCC(=O)O)NC(=O)[C@H](CO)NC(C)=O)CSCC[C@@H](C(=O)N(C)CC(=O)N[C@@H](CCC(=O)O)C(=O)NCC(=O)N[C@@H](CCC(=O)O)C(=O)NCCOCCOCC(=O)NCCOCCOCC(=O)N[C@@H](CCCCNC(=O)CC[C@H](NC(=O)CNC(=O)CC[C@H](NC(=O)CCCCCCCCCCCCCCCCC(=O)O)C(=O)O)C(=O)O)C(N)=O)NC(=O)[C@H](CCCNC(=N)N)NC(=O)[C@H](Cc2c[nH]cn2)NC(=O)[C@H](CCC(=O)O)NC(=O)CNC(=O)[C@H](Cc2c[nH]c3ccccc23)NC(=O)[C@H](CC(=O)O)NC(=O)[C@H](CCC(N)=O)NC(=O)[C@H](Cc2cn(C)c3ccccc23)NC1=O [Compound 146, Ac-SEFA(1)I[1-Me-Trp]QDWGEHRhC(1)[Sar]EGE[Peg3][Peg3]-K([17-carboxy-heptadecanoyl][γGlu]G[γGlu])-NH2] (Ac-SEFCI[Trp(1-Me)]QDWGEHR[Abu(4-yl)][Sar]EGE[AEEA][AEEA]K([γGlu-Gly-γGlu-C18 diacid])-NH2; thioether 4-14) | < 100 | 117 | 

Source: patent US20220306695A1, “COMPSTATIN ANALOGUES AND THEIR MEDICAL USES” (priority 2019, published 2022)
